The results in this text go back to ChEMBL document CHEMBL4406890, “Discovery of a novel bicyclic compound, DS54360155, as an orally potent analgesic without mu-opioid receptor agonist activity” (Bioorg Med Chem Lett, 2019).

The subject of data set [1] is Mus musculus. As to the kind of experiment: Analgesic activity in ddY mouse model of acetic acid-induced writhing assessed as inhibition of writhing numbers at 30 mg/kg, po pretreated for 30 mins followed by acetic acid challenge and measured for 25 mins relative to control. Format: functional. For orientation: An intraperitoneal irritant provokes the stretching counted in writhing tests.

A short description of data set [2]: Metabolic stability in CD1 mouse liver microsomes assessed as parent compound remaining incubated for 0.5 hrs in presence of beta-NADP by LC-MS/MS analysis. To be noted: read-out: Stability. Format: ADME, Microsome.
The target in data set [3] is hERG (KCNH2) (Homo sapiens, UniProt Q12809). Put plainly: Inhibition of human ERG at 10 uM relative to control.
Chain of hERG (KCNH2) (Q12809 whole entry): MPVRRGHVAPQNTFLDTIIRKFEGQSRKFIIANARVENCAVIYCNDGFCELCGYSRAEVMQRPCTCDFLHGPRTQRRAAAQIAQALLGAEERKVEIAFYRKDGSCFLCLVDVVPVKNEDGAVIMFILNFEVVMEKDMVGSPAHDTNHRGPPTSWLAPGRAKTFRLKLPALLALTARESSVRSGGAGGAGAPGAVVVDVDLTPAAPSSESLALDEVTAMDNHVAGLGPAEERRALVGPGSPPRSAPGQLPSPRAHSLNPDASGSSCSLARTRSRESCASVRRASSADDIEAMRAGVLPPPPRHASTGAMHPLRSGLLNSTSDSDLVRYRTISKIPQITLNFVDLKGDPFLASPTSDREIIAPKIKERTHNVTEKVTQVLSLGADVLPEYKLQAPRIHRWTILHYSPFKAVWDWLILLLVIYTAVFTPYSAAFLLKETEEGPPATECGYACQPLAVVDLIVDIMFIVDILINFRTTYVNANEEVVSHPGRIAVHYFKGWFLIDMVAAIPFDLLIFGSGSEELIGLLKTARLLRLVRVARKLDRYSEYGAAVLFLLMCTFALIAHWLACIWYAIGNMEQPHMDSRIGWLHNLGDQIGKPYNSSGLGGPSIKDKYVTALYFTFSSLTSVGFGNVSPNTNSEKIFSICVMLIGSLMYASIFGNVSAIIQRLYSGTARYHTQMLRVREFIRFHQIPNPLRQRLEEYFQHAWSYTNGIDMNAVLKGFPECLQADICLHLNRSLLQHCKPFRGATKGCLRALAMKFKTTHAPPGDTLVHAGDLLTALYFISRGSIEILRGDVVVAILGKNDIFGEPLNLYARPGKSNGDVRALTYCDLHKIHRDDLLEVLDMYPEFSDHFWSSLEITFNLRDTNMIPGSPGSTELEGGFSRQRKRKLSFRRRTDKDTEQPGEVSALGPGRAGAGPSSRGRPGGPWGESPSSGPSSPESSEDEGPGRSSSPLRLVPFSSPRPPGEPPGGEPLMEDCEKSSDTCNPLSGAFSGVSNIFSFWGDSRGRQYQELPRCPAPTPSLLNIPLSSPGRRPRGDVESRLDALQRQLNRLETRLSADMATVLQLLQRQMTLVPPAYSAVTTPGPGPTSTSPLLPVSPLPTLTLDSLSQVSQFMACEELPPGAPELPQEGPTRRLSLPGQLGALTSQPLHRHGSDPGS
Data set [4] has as its system Mus musculus. As to the kind of experiment: Analgesic activity in oral dosed ddY mouse model of acetic acid-induced writhing pretreated for 30 mins followed by acetic acid challenge and measured for 25 mins. The data set is classed as functional.
For data set [5], the system named is Mus musculus. Put plainly: Analgesic activity in ddY mouse assessed as reduction in total time spent in paw licking and biting during initial phase at 30 mg/kg, po pretreated for 30 mins followed by formalin challenge and measured for 15 mins post formalin challenge by formalin test relative to control. Format: functional.
In data set [6] the target is T1, Mu-type opioid receptor (Homo sapiens, UniProt P35372). Put plainly: Agonist activity at human mu opioid receptor expressed in CHOK1 cells assessed as inhibition of forskolin-induced cAMP production by FRET assay. Format: cell-based. (Changes in cAMP serve as a functional read-out for many G protein-coupled receptors.)
T1 sequence (P35372 whole entry): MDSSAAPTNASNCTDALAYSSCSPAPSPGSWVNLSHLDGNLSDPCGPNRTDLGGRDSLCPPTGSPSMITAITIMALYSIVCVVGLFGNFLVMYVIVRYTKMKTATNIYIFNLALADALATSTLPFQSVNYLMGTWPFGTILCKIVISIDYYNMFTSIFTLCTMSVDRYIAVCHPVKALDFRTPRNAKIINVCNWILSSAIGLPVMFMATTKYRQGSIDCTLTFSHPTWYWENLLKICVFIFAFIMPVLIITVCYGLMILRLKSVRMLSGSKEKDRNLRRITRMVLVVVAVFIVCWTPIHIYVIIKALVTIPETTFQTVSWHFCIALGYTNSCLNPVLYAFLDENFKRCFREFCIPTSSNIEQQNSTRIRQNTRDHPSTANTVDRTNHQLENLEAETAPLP
Data set [7] can be described thus: 1-Octanol/phosphate buffered-saline distribution coefficient, logD of compound at pH 7.4. Format: physicochemical.
Data set [8] concerns Mus musculus. As to the kind of experiment: Analgesic activity in ddY mouse model of acetic acid-induced writhing assessed as inhibition of writhing numbers at 3 mg/kg, po pretreated for 30 mins followed by acetic acid challenge and measured for 25 mins relative to control. The data set is classed as functional.
Data set [9] has as its system Mus musculus. As to the kind of experiment: Analgesic activity in ddY mouse model of acetic acid-induced writhing assessed as inhibition of writhing numbers at 10 mg/kg, po pretreated for 30 mins followed by acetic acid challenge and measured for 25 mins relative to control. Format: functional.
Data set [10] in a line: AUC in ddY mouse at 10 mg/kg, po measured after 3 mins by LC-MS/MS analysis. The data set is classed as ADME, organism-based. Also on record: time < 0.05 hr, dose 10 mg/kg, route oral. The following applies: in vivo.
A short description of data set [11]: Cmax in ddY mouse at 10 mg/kg, po measured after 3 mins by LC-MS/MS analysis. The data set is classed as ADME, organism-based. Also on record: dose 10 mg/kg, route oral. The following applies: in vivo.
The nature of data set [12]: Half-life in ddY mouse at 10 mg/kg, po measured after 3 mins by LC-MS/MS analysis. The data set is classed as ADME, organism-based. The following applies: in vivo.
Data set [13] in a line: Clearance in ddY mouse at 1 mg/kg, iv measured after 3 mins by LC-MS/MS analysis. The data set is classed as ADME, organism-based. To be noted: in vivo.
Data set [14] in a line: Volume of distribution in ddY mouse at 1 mg/kg, iv measured after 3 mins by LC-MS/MS analysis. The data set is classed as ADME, organism-based. To be noted: in vivo.
Data set [15] has as its target T1, Mu-type opioid receptor. As to the kind of experiment: Displacement of [3H]-diprenorphin from human mu opioid receptor incubated for 1 hr. The data set is classed as ADME.
In data set [16] the target is T1, Mu-type opioid receptor. Put plainly: Agonist activity at human mu opioid receptor expressed in CHOK1 cells assessed as inhibition of forskolin-induced cAMP production by FRET assay relative to DAMGO. Format: cell-based.

The structures appear in SMILES notation.

As usually defined, the inhibition in vivo is the drop in the measured response relative to a control, in per cent. For orientation: inhibition means the relative decrease from the control value, in per cent. Read a low inhibition as a weak effect. In general, ED50 refers to the dose that gives a 50% effect, or the effect in half of the subjects. The term EC50 denotes the concentration needed to bring the measured effect to its halfway point. Broadly, the logD is lipophilicity at a set pH, counting ionised and neutral species. Broadly, the AUC is the area under the concentration-time curve, a measure of exposure. A low value points to less exposure. The term Cmax denotes the maximum level reached in the sampled fluid or tissue. For orientation: half-life means the time in which the quantity being followed falls by half. Read a low half-life as rapid decline. What is called clearance is a measure of how efficiently the substance is removed, as volume per time. As usually defined, the Vd is the apparent volume that relates the amount in the body to the concentration in plasma or blood. Higher therefore signals wide distribution into tissue. One may read the IC50 as the concentration that gives 50% inhibition. A lower IC50 goes with greater potency. One may read the Emax as the size of the effect at its maximum, as opposed to the concentration needed.

`C/C=C1/CN2CC[C@H]1C(=O)c1[nH]c3ccccc3c1C2.O=S(=O)(O)O`: the results for the inhibition in vivo at 30 mg/kg in [1] and in [5] were 49% and 43%, respectively. Further, the remaining at 0.5 h in [2] is 34%. Also, at 10 µM the inhibition in data set [3] was 63%. For the same molecule, the ED50 in data set [4] worked out at 32 mg/kg. The half-maximal effective concentration (EC50) in data set [6] is above 100 µM.

`CN1C(=O)c2[nH]c3ccccc3c2CN2CC[C@H]1C2.O=S(=O)(O)O` yielded a logD in data set [7] of 0.7. Besides, the inhibition in vivo at 30 mg/kg in data set [1] is 95%; in data set [5], 83%. Further, the inhibition in vivo at 3 mg/kg in [8] was 19%. Besides, the remaining at 0.5 h in data set [2] amounted to 99%. Further, 10 µM produced 14% inhibition in data set [3]. Further, in [9], the inhibition in vivo at 10 mg/kg amounted to 23%. Also, the 50% effective dose (ED50) in data set [4] is 12 mg/kg. In data set [10], this molecule registered an area under the curve (AUC) at 0.05 h of 5.8 µM·h. The highest concentration (Cmax) in data set [11] is 2150 nM. The molecule also gave a half-life in data set [12] of 136 min. Also, the clearance in data set [13] is 24.9 mL/min/kg. The molecule further came in with a Vd in data set [14] of 1.72 L/kg. This molecule had an IC50 in data set [15] above 100 µM. The EC50 in data set [6] was above 100 µM. Further, the Emax in data set [16] was 19%.

The molecule `CN1C(=O)c2[nH]c3ccccc3c2CN2CCC[C@H]1C2` showed a logD in data set [7] of 1. In addition, the inhibition in vivo at 30 mg/kg in data set [1] turned out to be 77%. Besides, the remaining at 0.5 h in [2] amounted to 74%. In data set [3], this molecule came in with an inhibition at 10 µM of 38%. For the same molecule, the ED50 in data set [4] amounted to 23 mg/kg. For the same molecule, the AUC at 0.05 h in [10] amounted to 1.59 µM·h. Moreover, the Cmax in data set [11] came to 720 nM. This molecule also gave a half-life in data set [12] of 131 min.

Take `CN1C(=O)c2[nH]c3ccccc3c2CN2CC[C@@H]1C2.O=S(=O)(O)O`: the logD in data set [7] worked out at 0.7. For the same molecule, the inhibition in vivo at 30 mg/kg in [1] was 49%; in data set [5] it was 30%. Moreover, the remaining at 0.5 h in data set [2] was above 100%. For the same molecule, the inhibition at 10 µM in [3] worked out at 23%. Moreover, the ED50 in data set [4] turned out to be 27 mg/kg. The AUC at 0.05 h in data set [10] amounted to 12.2 µM·h. This molecule also had a Cmax in data set [11] of 2990 nM. In addition, the half-life in data set [12] was 151 min. This molecule also showed a clearance in data set [13] of 12.9 mL/min/kg. In addition, the Vd in data set [14] worked out at 1.14 L/kg. This molecule displayed a concentration for half-maximal inhibition (IC50) in [15] above 100 µM. Further, the EC50 in [6] is above 100 µM. Also, the maximal response (Emax) in data set [16] worked out at 18%.

`CCN1CCCC(=O)c2[nH]c3ccccc3c2C1` returned a logD in data set [7] of 1.3. Moreover, the inhibition in vivo at 30 mg/kg in data set [1] was 36%. The remaining at 0.5 h in data set [2] was found to be 49%. In data set [3], this molecule showed an inhibition at 10 µM of 73%.

In [7], `CN1C(=O)c2[nH]c3ccccc3c2CN2CCC[C@@H]1C2` gave a logD of 0.9. Also, in data set [1], the inhibition in vivo at 30 mg/kg is 65%. For the same molecule, in [2], the remaining at 0.5 h stood at 82%.

In turn, `CN1CCCC(=O)c2[nH]c3ccccc3c2C1` registered a log distribution coefficient (logD) in [7] of 1.1. For the same molecule, in [1], the inhibition in vivo at 30 mg/kg turned out to be 31%. The remaining at 0.5 h in data set [2] stood at 53%. This molecule also showed an inhibition at 10 µM in data set [3] of 50%.

`CC12CCCN(CC1)Cc1c([nH]c3ccccc13)C2=O` (racemic) displayed a log distribution coefficient (logD) in [7] of 1.5. For the same molecule, the inhibition in vivo at 30 mg/kg in data set [1] came out at 21%. Also, in data set [2], the remaining at 0.5 h came to 91%. Besides, the inhibition at 10 µM in [3] was 88%.

Consider `CN1C(=O)c2[nH]c3ccccc3c2CN2CCC1(C)C2` (racemic), for which the logD in data set [7] turned out to be 0.7. Also, the inhibition in vivo at 30 mg/kg in [1] worked out at 37%. The remaining at 0.5 h in data set [2] was found to be 93%. The molecule further gave an inhibition at 10 µM in data set [3] of 36%.

For `O=C1c2[nH]c3ccccc3c2CN2CCC3(CCCN13)C2` (racemic), the logD in data set [7] was found to be 1.2. For the same molecule, the inhibition in vivo at 30 mg/kg in data set [1] amounted to 47%. Moreover, the remaining at 0.5 h in data set [2] amounted to 82%. This molecule also yielded an inhibition at 10 µM in [3] of 13%.

`CCCN1C(=O)c2[nH]c3ccccc3c2CN2CCC1C2` (racemic) displayed a logD in [7] of 1.6. Also, in data set [1], the inhibition in vivo at 30 mg/kg amounted to 44%. The remaining at 0.5 h in data set [2] amounted to 72%. Also, testing at 10 µM in data set [3] gave an inhibition of 43%.

For `O=C1c2[nH]c3ccccc3c2CN2CCC(C2)N1C1CC1` (racemic), in data set [7], the logD was 1.1. For the same molecule, the inhibition in vivo at 30 mg/kg in [1] came out at 55%. Moreover, in data set [2], the remaining at 0.5 h amounted to 92%. The inhibition at 10 µM in data set [3] came out at 19%.

For the molecule `CN1C(=O)c2[nH]c3ccccc3c2CN2CCC1C2.O=S(=O)(O)O` (racemic), the logD in [7] is 0.7. Moreover, the inhibition in vivo at 30 mg/kg in data set [1] was 83%. Also, the remaining at 0.5 h in data set [2] is above 100%. In [3], this molecule registered an inhibition at 10 µM of 26%. In addition, the median effective dose (ED50) in data set [4] stood at 21 mg/kg. The exposure (AUC) at 0.05 h in data set [10] is 3.29 µM·h. In addition, the peak level in data set [11] (Cmax) was 1460 nM. In [12], this molecule gave a half-life of 101 min.

`CCN1C(=O)c2[nH]c3ccccc3c2CN2CCC1C2` (racemic) came in with a log distribution coefficient (logD) in [7] of 1.1. Further, the inhibition in vivo at 30 mg/kg in data set [1] turned out to be 43%. In data set [2], the remaining at 0.5 h came out at 91%. In data set [3], this molecule came in with an inhibition at 10 µM of 14%.
